{"source": "patent US20260146034A1", "about": "“1H-CYCLOPENTA[B]BENZOFURAN DERIVATIVES FOR THE PREVENTION AND TREATMENT OF VIRUS DISEASES” (priority 2022, published 2026)", "origin": "cited, not measured here", "key": {"[1]": {"tested_on": "SARS-COV-2", "settings": "eFFECTOR's Therapeutic, Apr. 30, 2020"}, "[2]": {"tested_on": "RNA helicase enzyme elF4A", "settings": "previous studies"}, "[3]": {"tested_on": "corona viruses, SARS and MERS virus"}, "[4]": {"tested_on": "coronavirus", "settings": "J. Virology, 2011, 6381"}}, "data": [{"compound": "COc1cc2c(c(OC)n1)[C@]1(O)[C@H](O)[C@H](CN(C)C)[C@@H](c3ccccc3)[C@]1(c1ccc(C#N)cc1)O2", "note": "[Zotatifin]", "values": [{"measurement": "anti viral activity against SARS-COV-2", "setting": "[1]", "value": "shows anti viral activity"}]}, {"compound": "Silvesterol", "values": [{"measurement": "inhibition of the RNA helicase enzyme elF4A", "setting": "[2]", "value": "potent and selective inhibitor"}, {"measurement": "antiviral activity against corona viruses, SARS and MERS virus", "setting": "[3]", "value": "broadspectrum antiviral activity"}]}, {"compound": "4E2RCat", "values": [{"measurement": "blocking coronavirus replication", "setting": "[4]", "value": "capable of blocking coronavirus replication"}]}]}
